ChEMBL document CHEMBL4725427, “Synthesis and SAR Studies of 1H-Pyrrolo[2,3-b]pyridine-2-carboxamides as Phosphodiesterase 4B (PDE4B) Inhibitors” (ACS Med Chem Lett, 2020)

Columns and labels:
[1] = target: 3',5'-cyclic-AMP phosphodiesterase 4B (Homo sapiens, UniProt Q07343); test: Inhibition of recombinant human C-terminal His-tagged N-terminal GST-tagged PDE4B2 expressed in baculovirus infected Sf9 cells by radioligand binding assay; assay type: cell-based
[2] = Effect on TNFalpha production in C57BL/6 mouse bone marrow derived Macrophage at 1 to 10 uM incubated for 30 mins by ELISA; conditions: 0.5 h
[3] = Metabolic stability in human liver microsomes assessed as intrinsic clearance; assay type: ADME, Microsome; conditions: read-out: CLH
[4] = Protein binding in mouse plasma assessed as unbound fraction; assay type: ADME, cell-free
[5] = target: Dual specificity calcium/calmodulin-dependent 3',5'-cyclic nucleotide phosphodiesterase 1B (Homo sapiens) (UniProt Q01064); test: Inhibition of recombinant human N-terminal GST-tagged PDE1B expressed in baculovirus infected Sf9 cells at 10 uM by radioligand assay relative to control
[6] = target: Dual specificity calcium/calmodulin-dependent 3',5'-cyclic nucleotide phosphodiesterase 1C (Homo sapiens) (UniProt Q14123); test: Inhibition of recombinant human N-terminal GST-tagged PDE1C expressed in baculovirus infected Sf9 cells at 10 uM by radioligand assay relative to control
[7] = target: cGMP-dependent 3',5'-cyclic phosphodiesterase (Homo sapiens) (UniProt O00408); test: Inhibition of recombinant human N-terminal FLAG-tagged PDE2A1 (2 to 941 residues) expressed in baculovirus infected Sf9 cells at 10 uM by radioligand assay relative to control
[8] = target: cGMP-inhibited 3',5'-cyclic phosphodiesterase 3A (Homo sapiens) (UniProt Q14432); test: Inhibition of recombinant human N-terminal His-tagged PDE3A (669 to 1141 end residues) expressed in baculovirus infected Sf9 cells at 10 uM by radioligand assay relative to control
[9] = target: 3',5'-cyclic-AMP phosphodiesterase 4C (Homo sapiens) (UniProt Q08493); test: Inhibition of recombinant human N-terminal GST-tagged PDE4C1 expressed in baculovirus infected Sf9 cells at 10 uM by radioligand assay relative to control
[10] = target: 3',5'-cyclic-AMP phosphodiesterase 4D (Homo sapiens) (UniProt Q08499); test: Inhibition of recombinant human N-terminal GST-tagged PDE4D3 expressed in baculovirus infected Sf9 cells at 10 uM by radioligand assay relative to control
[11] = target: 3',5'-cyclic-AMP phosphodiesterase 7B (Homo sapiens) (UniProt Q9NP56); test: Inhibition of recombinant human N-terminal GST-tagged C-terminal His-tagged PDE7B (109 to end residues) expressed in baculovirus infected Sf9 cells at 10 uM by radioligand assay relative to control
[12] = target: High affinity cGMP-specific 3',5'-cyclic phosphodiesterase 9A (Homo sapiens) (UniProt O76083); test: Inhibition of recombinant human N-terminal GST-tagged PDE9A2 expressed in baculovirus infected Sf9 cells at 10 uM by radioligand assay relative to control
[13] = target: Dual 3',5'-cyclic-AMP and -GMP phosphodiesterase 11A (Homo sapiens) (UniProt Q9HCR9); test: Inhibition of recombinant human N-terminal GST-tagged PDE11A4 expressed in baculovirus infected Sf9 cells at 10 uM by radioligand assay relative to control
[14] = target: 5-hydroxytryptamine receptor 2A (Homo sapiens) (UniProt P28223); test: Inhibition of 5HT2A (unknown origin) relative to control; conditions: concentration not given here
[15] = target: 5-hydroxytryptamine receptor 7 (Homo sapiens) (UniProt P34969); test: Inhibition of 5HT7A (unknown origin) relative to control; conditions: concentration not given here
[16] = target: Alpha-2C adrenergic receptor (Homo sapiens) (UniProt P18825); test: Inhibition of adrenoceptor alpha 2C (unknown origin) relative to control; conditions: concentration not given here
[17] = target: Beta-2 adrenergic receptor (Homo sapiens) (UniProt P07550); test: Inhibition of adrenoceptor beta2 (unknown origin) relative to control; conditions: concentration not given here
[18] = target: D(1A) dopamine receptor (Homo sapiens) (UniProt P21728); test: Inhibition of D1 (unknown origin) relative to control; conditions: concentration not given here
[19] = target: D(3) dopamine receptor (Homo sapiens) (UniProt P35462); test: Inhibition of D3 (unknown origin) relative to control; conditions: concentration not given here
[20] = target: Histamine H3 receptor (Homo sapiens) (UniProt Q9Y5N1); test: Inhibition of histamine H3 receptor (unknown origin) relative to control; conditions: concentration not given here
[21] = target: Muscarinic acetylcholine receptor M2 (Homo sapiens) (UniProt P08172); test: Inhibition of muscarinic M2 receptor (unknown origin) relative to control; conditions: concentration not given here
[22] = target: Muscarinic acetylcholine receptor M3 (Homo sapiens) (UniProt P20309); test: Inhibition of muscarinic M3 receptor (unknown origin) relative to control; conditions: concentration not given here
[23] = target: Sigma non-opioid intracellular receptor 1 (Homo sapiens) (UniProt Q99720); test: Inhibition of sigma1 receptor (unknown origin) relative to control; conditions: concentration not given here
[24] = target: 5-hydroxytryptamine receptor 2C (Homo sapiens, UniProt P28335); test: Inhibition of 5HT2C (unknown origin)

Sequence of High affinity cGMP-specific 3',5'-cyclic phosphodiesterase 9A (Homo sapiens) (O76083 whole entry): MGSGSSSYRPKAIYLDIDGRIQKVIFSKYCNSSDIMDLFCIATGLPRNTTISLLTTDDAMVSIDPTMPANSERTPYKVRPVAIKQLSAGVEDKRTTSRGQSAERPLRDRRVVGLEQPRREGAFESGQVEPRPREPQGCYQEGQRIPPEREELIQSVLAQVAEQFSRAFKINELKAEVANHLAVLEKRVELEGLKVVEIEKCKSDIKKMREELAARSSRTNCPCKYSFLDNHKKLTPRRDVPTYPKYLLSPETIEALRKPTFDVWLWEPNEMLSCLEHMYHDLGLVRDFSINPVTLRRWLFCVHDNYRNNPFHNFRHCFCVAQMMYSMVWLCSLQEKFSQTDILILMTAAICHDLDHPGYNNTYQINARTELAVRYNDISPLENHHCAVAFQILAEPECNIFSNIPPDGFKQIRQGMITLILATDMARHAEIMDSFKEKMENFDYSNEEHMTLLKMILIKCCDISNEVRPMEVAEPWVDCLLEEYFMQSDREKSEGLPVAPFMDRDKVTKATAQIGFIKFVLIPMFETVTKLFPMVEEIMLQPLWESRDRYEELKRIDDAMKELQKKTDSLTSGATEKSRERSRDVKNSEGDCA
Sequence of cGMP-dependent 3',5'-cyclic phosphodiesterase (Homo sapiens) (O00408 whole entry, the tested form may be a part): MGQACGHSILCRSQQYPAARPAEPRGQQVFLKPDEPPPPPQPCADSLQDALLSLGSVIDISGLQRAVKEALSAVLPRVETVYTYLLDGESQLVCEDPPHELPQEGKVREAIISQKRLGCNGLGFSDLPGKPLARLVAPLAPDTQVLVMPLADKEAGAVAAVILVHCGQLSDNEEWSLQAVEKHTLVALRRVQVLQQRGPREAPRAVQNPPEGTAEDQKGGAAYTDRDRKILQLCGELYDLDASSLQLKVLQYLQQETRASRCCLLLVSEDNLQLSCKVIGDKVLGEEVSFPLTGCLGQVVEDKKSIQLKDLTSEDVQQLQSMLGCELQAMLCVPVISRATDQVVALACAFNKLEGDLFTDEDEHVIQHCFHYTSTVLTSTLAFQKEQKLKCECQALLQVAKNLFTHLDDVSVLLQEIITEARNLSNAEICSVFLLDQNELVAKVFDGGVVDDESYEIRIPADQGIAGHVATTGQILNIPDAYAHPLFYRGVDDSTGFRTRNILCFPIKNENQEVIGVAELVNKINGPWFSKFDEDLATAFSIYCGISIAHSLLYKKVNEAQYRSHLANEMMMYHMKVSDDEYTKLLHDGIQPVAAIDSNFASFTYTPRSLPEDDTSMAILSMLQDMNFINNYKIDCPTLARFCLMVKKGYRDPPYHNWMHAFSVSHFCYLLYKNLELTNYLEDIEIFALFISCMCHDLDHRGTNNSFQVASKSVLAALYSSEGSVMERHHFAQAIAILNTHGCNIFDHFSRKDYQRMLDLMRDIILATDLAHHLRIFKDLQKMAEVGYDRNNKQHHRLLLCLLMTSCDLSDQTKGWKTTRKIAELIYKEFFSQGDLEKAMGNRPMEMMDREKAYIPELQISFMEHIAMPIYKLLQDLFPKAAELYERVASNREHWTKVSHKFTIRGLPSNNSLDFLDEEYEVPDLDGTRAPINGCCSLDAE
Sequence of Dual specificity calcium/calmodulin-dependent 3',5'-cyclic nucleotide phosphodiesterase 1C (Homo sapiens) (Q14123 whole entry, the tested form may be a part): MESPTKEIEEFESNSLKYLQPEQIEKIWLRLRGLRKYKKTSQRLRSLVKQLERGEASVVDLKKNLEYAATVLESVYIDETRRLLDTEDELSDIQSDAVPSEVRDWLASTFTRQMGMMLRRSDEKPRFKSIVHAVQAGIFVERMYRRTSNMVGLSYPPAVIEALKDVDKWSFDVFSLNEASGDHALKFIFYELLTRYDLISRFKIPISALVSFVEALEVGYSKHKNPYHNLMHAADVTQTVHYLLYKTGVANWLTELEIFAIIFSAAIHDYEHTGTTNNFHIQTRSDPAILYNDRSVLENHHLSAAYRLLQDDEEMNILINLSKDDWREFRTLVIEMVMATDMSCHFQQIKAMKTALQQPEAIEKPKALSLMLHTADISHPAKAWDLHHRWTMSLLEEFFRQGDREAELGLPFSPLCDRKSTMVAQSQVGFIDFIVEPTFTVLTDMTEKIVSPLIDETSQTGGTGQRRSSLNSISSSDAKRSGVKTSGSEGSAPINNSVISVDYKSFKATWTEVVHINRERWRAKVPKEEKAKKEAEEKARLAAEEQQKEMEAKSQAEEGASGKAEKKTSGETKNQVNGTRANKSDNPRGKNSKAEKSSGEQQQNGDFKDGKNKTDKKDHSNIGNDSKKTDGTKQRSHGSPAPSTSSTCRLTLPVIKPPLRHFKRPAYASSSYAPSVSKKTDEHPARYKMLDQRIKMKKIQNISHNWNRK
Sequence of 3',5'-cyclic-AMP phosphodiesterase 4D (Homo sapiens) (Q08499 whole entry): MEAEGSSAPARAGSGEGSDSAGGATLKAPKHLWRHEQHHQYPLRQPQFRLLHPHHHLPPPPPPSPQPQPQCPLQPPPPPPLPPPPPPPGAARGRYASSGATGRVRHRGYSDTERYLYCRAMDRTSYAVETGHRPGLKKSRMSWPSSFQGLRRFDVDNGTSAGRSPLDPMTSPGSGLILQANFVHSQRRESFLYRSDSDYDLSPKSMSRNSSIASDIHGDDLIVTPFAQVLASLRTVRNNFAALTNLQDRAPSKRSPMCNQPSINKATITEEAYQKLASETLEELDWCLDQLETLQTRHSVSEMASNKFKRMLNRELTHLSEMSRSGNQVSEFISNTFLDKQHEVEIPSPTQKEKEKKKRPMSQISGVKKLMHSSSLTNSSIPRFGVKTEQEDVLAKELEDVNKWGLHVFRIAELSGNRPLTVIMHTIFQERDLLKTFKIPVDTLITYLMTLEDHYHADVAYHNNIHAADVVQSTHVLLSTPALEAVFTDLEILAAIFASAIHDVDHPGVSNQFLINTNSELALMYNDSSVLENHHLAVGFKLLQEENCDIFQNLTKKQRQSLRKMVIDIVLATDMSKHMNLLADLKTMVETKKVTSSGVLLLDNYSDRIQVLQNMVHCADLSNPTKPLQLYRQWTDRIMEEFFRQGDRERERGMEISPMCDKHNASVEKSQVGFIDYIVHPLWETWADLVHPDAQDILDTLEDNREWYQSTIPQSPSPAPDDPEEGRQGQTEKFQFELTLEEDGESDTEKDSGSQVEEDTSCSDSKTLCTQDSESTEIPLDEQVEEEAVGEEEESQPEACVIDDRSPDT
Sequence of 3',5'-cyclic-AMP phosphodiesterase 4C (Homo sapiens) (Q08493 whole entry): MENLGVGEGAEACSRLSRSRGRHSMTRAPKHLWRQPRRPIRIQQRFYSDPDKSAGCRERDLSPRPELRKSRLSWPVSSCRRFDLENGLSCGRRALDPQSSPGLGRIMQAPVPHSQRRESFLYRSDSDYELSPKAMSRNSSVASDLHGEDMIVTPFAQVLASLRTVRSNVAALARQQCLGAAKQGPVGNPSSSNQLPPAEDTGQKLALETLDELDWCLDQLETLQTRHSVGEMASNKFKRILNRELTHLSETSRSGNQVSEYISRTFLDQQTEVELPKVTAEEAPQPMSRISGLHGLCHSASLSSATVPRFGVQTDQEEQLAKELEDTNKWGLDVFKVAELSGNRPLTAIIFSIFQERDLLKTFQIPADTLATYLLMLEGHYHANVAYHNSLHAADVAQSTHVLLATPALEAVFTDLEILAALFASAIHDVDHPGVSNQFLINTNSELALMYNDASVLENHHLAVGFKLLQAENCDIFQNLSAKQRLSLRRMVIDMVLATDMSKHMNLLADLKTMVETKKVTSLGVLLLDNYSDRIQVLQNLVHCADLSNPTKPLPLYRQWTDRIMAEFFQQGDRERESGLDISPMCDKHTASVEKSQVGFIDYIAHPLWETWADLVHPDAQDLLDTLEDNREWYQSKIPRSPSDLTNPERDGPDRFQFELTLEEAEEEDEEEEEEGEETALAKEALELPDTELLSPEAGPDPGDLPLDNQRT
Sequence of 3',5'-cyclic-AMP phosphodiesterase 7B (Homo sapiens) (Q9NP56 whole entry): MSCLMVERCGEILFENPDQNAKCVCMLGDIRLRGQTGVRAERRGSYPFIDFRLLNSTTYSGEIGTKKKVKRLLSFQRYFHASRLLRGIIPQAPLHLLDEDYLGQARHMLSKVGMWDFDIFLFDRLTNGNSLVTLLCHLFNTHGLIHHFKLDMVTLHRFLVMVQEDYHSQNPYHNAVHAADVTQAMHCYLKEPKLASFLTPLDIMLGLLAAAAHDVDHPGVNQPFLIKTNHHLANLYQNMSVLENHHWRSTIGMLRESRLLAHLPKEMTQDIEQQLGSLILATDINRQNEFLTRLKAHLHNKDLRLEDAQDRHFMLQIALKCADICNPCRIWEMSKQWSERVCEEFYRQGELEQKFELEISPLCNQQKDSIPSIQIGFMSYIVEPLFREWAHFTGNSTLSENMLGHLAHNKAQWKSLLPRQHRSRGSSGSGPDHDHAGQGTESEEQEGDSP
Sequence of D(1A) dopamine receptor (Homo sapiens) (P21728 whole entry): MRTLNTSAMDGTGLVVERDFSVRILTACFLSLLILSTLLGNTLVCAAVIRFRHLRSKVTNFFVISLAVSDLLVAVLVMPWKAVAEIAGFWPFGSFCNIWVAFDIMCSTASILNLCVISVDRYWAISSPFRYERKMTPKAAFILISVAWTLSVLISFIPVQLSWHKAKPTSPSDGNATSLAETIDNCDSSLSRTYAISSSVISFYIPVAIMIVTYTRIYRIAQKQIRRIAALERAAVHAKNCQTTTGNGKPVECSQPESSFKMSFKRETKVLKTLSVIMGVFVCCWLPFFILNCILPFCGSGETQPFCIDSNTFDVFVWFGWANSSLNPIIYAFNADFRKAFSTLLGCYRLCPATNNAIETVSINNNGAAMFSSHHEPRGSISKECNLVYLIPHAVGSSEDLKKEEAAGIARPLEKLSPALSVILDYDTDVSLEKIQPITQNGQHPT
Sequence of Sigma non-opioid intracellular receptor 1 (Homo sapiens) (Q99720 whole entry): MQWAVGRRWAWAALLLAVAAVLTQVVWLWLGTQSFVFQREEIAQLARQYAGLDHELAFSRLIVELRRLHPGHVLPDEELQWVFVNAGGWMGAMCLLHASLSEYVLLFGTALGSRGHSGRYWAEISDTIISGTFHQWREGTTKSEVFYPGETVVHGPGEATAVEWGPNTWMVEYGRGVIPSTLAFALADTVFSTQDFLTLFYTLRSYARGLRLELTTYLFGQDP

Compound: O=C(c1nc2cccnc2n1-c1ccc(Cl)c(Cl)c1)N1CC(F)(F)C1
- IC50 [1]: 140 nM
- Activity [2]: Non-Toxic
- CLint scaled [3]: 97.1 mL/min/kg
- fraction unbound [4]: 0.027
- inhibition [5]: < 50%
- inhibition [6]: < 50%
- inhibition [7]: < 50%
- inhibition [8]: < 50%
- inhibition [9]: < 50%
- inhibition [10]: < 50%
- inhibition [11]: < 50%
- inhibition [12]: < 50%
- inhibition [13]: < 50%
- inhibition [14]: < 50%
- inhibition [15]: < 50%
- inhibition [16]: < 50%
- inhibition [17]: < 50%
- inhibition [18]: < 50%
- inhibition [19]: < 50%
- inhibition [20]: < 50%
- inhibition [21]: < 50%
- inhibition [22]: < 50%
- inhibition [23]: < 50%
- IC50 [24]: > 10000 nM
